{"source": "patent US20260325485A1", "about": "“COMPOSITIONS AND METHODS FOR TREATING PANCREATITIS” (The United States Government as represented by the …, priority 2022, published 2026)", "key": {"[1]": {"tested_on": "mouse pancreatic acinar cells", "assay": "Ex-vivo CCK-AP in mouse pancreatic acinar cells treated with simvastatin or MCD", "assay_type": "cell-based", "conditions": "simvastatin 4 μM, 3 h or MCD 10 mM, 1 h", "experimental": "FIGS. 26A-26D preventing cholesterol overload ameliorates ex-vivo pancreatitis. Mouse pancreatic acinar cells were incubated (A, B) with simvastatin (4 μM, 3 h) or (C, D) cholesterol chelator, methyl-β-cyclodextrin (MCD; 10 mM, 1 h) and then subjected to CCK-AP for 1 (D) or 3 h (A, B). Cholesterol content (A, C) necrosis (B), and trypsin activity (D) were measured. Each symbol represents an individual cell preparation. Values are mean±SEM*p<0/05, **p<0.01 vs control; #p<0.05 ##p<0.01; vs CCK, no inhibitor.\nEx vivo pancreatitis models were performed on mouse and human acinar cells, and human pancreas slices by incubation with supramaximal CCK (100 nM) or carbachol (1 mM), as described previously (80, 81).\nActivities of cathepsin (Cat) B and L, caspase-3, trypsin, and lysosomal acid lipase (LAL) were measured in pancreatic tissue or cell homogenates and subcellular fractions with fluorogenic assays using substrates specific for CatB (Z-Arg-Arg-AMC), CatL (Z-Phe-Arg-AMC), caspase-3-like ([…]), trypsin (Boc-Gln-Ala-Arg-AMC), as previously described (1-4, 6, 7); and for LAL (4-methylumbelliferyl oleate), as in (17). In measurements of CatL activity, the assay buffer also contained 50 μM CA-074me, a CatB inhibitor. LAL activity was measured in the absence and presence of the LAL inhibitor lalistat (100 μM) as the difference between these values (17).\nTotal cholesterol content was measured with Cholesterol Assay kit per manufacturer's instructions. Samples of mouse pancreas and liver, cell pellet homogenates, subcellular fractions, isolated mitochondria, and serum were diluted in the reaction buffer containing cholesterol probe and incubated at 37° C. for 1 h in the dark. To measure total cholesterol, the samples were subjected to digestion with cholesterol esterase. To measure non-esterified cholesterol, the esterase was omitted from the assay."}, "[2]": {"tested_on": "cerulein pancreatitis (CER-AP)", "assay": "Drug treatment of cerulein pancreatitis (CER-AP) in WT mice", "assay_type": "in vivo, mouse", "experimental": "FIGS. 10A-10N show deranged cholesterol metabolism causes acinar cell damage, while its normalization ameliorates experimental pancreatitis. (A-D) Cholesterol content and trypsin activity were measured (per mg protein) in WT mouse acinar cells incubated for 1 hour without and with methyl-β-cyclodextrin (MCD; 10 mM) or cholesterol-loaded MCD (MCD-Chol; 200 μg/mL), in the presence or absence of 100 nM CCK. Values are expressed relative to those in cells without MCD/MCD-Chol. (E-J) WT mice received daily i.p. injections of the LXR agonist T0901317 (T09), simvastatin (Sim; 20 mg/kg each), or vehicle. On day 4, mice were subjected to CER-AP and pancreata collected for analyses (see also FIG. 20). Cholesterol content (E), trypsin activity (F), and pancreas histopathology (H&E staining; G) were measured. (H, I, L, and N) IB analysis of markers/mediators of autophagy (LC3, p62), ER stress (CHOP, GRP-78), and mitophagy (Parkin). Ub, ubiquitylated proteins. (J) Mitochondrial fragmentation was assessed by immunostaining for Tom20, as detailed in FIG. 7G. (K and L) Mouse acinar cells were treated for 16 hours with LDL (30 μg/mL) or the combination of LDL and 10 μM U18666A. (M and N) Mice received injections of U18666A as detailed in FIG. 9B. Pancreas histopathology (H&E staining; M) and levels of autophagy markers/mediators (N) were measured. Each symbol in A-F and I represents an individual mouse or cell preparation. Values are mean±SEM from 3 to 7 mice or cell preparations per condition. ^§ P<0.05, ^§§ P<0.01 vs. control cells (without MCD/MCD-Chol). ***P<0.001 vs. saline-treated mice. ^#P<0.05, ^##P<0.01, ^###P<0.001 vs. CER-AP alone (no inhibitors). Significance was determined by 2-tailed Student's t test (A-D) or 1-way ANOVA followed by Tukey's multiple comparison test (E, F, and I). Scale bars: 10 μm.\nFIGS. 20A-20C show simvastatin improves cerulein pancreatitis. Mice received daily i.p. injections of simvastatin (Sim; 20 mg/kg) or vehicle (see FIG. 10), and on day 4 were subjected to cerulein pancreatitis (CER-AP). (A) Pancreas histopathology (H&E staining; scale: 10 μm). (B) IB analysis of markers/mediators of autophagy (LC3, p62), ER stress (CHOP), and the MLN64/STARD3 protein mediating cholesterol transfer from LE/Ly to mitochondria. Each IB lane represents an individual mouse; ERK1/2 is the loading control. […] Ub, ubiquitylated proteins. (C) Pancreatitis responses. Values are mean±SEM from 7-13 mice for each condition. ***p<0.001 vs saline control. ^###p<0.001 vs CER-AP alone (no simvastatin). Significance was determined by 1-way ANOVA followed by Tukey's multiple comparisons test.\nFIGS. 25A-25C show reducing cholesterol overload greatly ameliorates experimental pancreatitis. CER-AP responses were measured in (A) AclyAac or (C) WT mice treated with simvastatin or bempedoic acid (BemA). (B) Acinar cells were transfected with ACLA (or mock) siRNA and subjected to ex-vivo CCK-AP. Each symbol represents an individual mouse or cell preparation. Values are mean±SE. **p<0.01, ***p<0.001 vs saline treated control mice (or mock transfection); #p<0.05, ##p<0.01, ###p<0.001 vs CER/CCK-AP in control mice (i.e. without inhibitors) or cells.\nCerulein-induced (CER-AP) and L-arginine induced (Arg-AP) acute pancreatitis models were performed in 12-week-old C57BL/6 mice that received 7 hourly i.p. injections of 50 μg/kg cerulein or 3 hourly i.p. injections of 3.3 g/kg Arg; controls received physiologic saline injections. Mice were euthanized for analyses 7 hours after the first cerulein or 24 hours after the first Arg injection. Choline deficient, ethionine-supplemented (CDE) pancreatitis was induced in young (~5-weeks old) female mice fed either CDE or control diet. Mice were euthanized 72 hours after the diet initiation. These models have been described in detail (1-7).\n12-week-old WT mice were subjected for 4 consecutive days to daily i.p. injections of 20 mg/kg simvastatin (8,9) or 20 mg/kg T0901317 (10); or 10 mg/kg U18666A for 15 days (11). […]"}, "[3]": {"conditions": "CER-AP, T0901317 or simvastatin 20 mg/kg i.p. daily"}, "[4]": {"conditions": "WT mice treated with simvastatin or BemA"}}, "data": [{"compound": "CCC(C)(C)C(=O)O[C@H]1C[C@@H](C)C=C2C=C[C@H](C)[C@H](CC[C@@H]3C[C@@H](O)CC(=O)O3)[C@H]21", "note": "[simvastatin]", "values": [{"measurement": "cholesterol overload in ex-vivo CCK-AP", "setting": "[1]", "result": "Reducing"}, {"measurement": "extent of necrosis in ex-vivo CCK-AP", "setting": "[1]", "result": "greatly decreased"}, {"measurement": "trypsinogen activation in ex-vivo CCK-AP", "setting": "[1]", "result": "greatly decreased"}, {"measurement": "CER-induced increase in MLN64", "setting": "[2]; CER-AP, 20 mg/kg i.p. daily", "result": "abrogated"}, {"measurement": "accumulation of LC3-II", "setting": "[2]; CER-AP, 20 mg/kg i.p. daily", "result": "reduced"}, {"measurement": "accumulation of p62", "setting": "[2]; CER-AP, 20 mg/kg i.p. daily", "result": "reduced"}, {"measurement": "accumulation of ubiquitylated proteins", "setting": "[2]; CER-AP, 20 mg/kg i.p. daily", "result": "reduced"}, {"measurement": "mitochondrial fragmentation (Tom20 IF)", "setting": "[2]; CER-AP, 20 mg/kg i.p. daily", "result": "normalized"}, {"measurement": "CHOP levels", "setting": "[2]; CER-AP, 20 mg/kg i.p. daily, ER stress", "result": "decreased"}, {"measurement": "pancreatitis-induced increase in total cholesterol", "setting": "[2]; [3]", "result": "eliminated"}, {"measurement": "pancreatitis-induced increase in trypsin activity", "setting": "[2]; [3]", "result": "eliminated"}, {"measurement": "other pancreatitis responses", "setting": "[2]; CER-AP, simvastatin 20 mg/kg i.p. daily, FIG. 20C", "result": "ameliorated"}, {"measurement": "pancreas histopathology in CER-AP", "setting": "[2]; H&E, 20 mg/kg i.p. daily", "result": "improved"}, {"measurement": "cholesterol overload in CER-AP (FIG. 25C)", "setting": "[2]; [4]", "result": "decreased"}, {"measurement": "inflammation in CER-AP (FIG. 25C)", "setting": "[2]; [4]", "result": "ameliorated"}, {"measurement": "necrosis in CER-AP (FIG. 25C)", "setting": "[2]; [4]", "result": "ameliorated"}, {"measurement": "trypsin activity in CER-AP (FIG. 25C)", "setting": "[2]; [4]", "result": "ameliorated"}, {"measurement": "pathologic responses of experimental pancreatitis (impaired autophagy, ER stress and others)", "setting": "[2]; discussion statement", "result": "reduced"}, {"measurement": "experimental pancreatitis in WT mouse and ex vivo models", "setting": "[2]; overall result", "result": "ameliorated"}]}]}
